Peptide text beside a SMILES is read from it.
Legend:
[1] = tested on: HIF-1α induced transcription of VEGF gene in HeLa cells; conditions: ref [18]; cited from earlier work
[2] = target: GST-p300 (p300 CH1 domain) (Homo sapiens, UniProt Q09472); test: Isothermal titration microcalorimetry; assay type: binding; conditions: for affinity for GST-p300 (in words): isothermal titration microcalorimetry
[3] = assay type: physicochemical; conditions: 10% trifluoroethanol in phosphate buffered saline (pH 6.3); for % helicity: circular dichroism, estimated from mean residue ellipticity at 222 nm
[4] = tested on: HIF-1α induced transcription of VEGF gene in HeLa cells; assay type: cell-based; conditions: qRT-PCR, hypoxic conditions (DFO), 12 and 24 h incubation
[5] = tested on: cell density and population doubling; test: Cell viability assay; assay type: cell-based; conditions: monitored up to 72 h, 1 μM peptide, 200 nM chetomin
[6] = tested on: GST-p300; CH1 domains of CBP (or p300); test: CD spectrum of GST-p300 / CH1 structural change on addition of compound; conditions: circular dichroism of GST-p300 with HBS 2 added

Sequence of GST-p300 (p300 CH1 domain) (Q09472 331-417 limits assumed): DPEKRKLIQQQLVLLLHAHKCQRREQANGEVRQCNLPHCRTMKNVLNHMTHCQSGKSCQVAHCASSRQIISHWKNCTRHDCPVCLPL

## CN1C(=O)[C@]2(Cc3cn([C@]45C[C@@]67SS[C@@](CO)(C(=O)N6[C@H]4Nc4ccccc45)N(C)C7=O)c4ccccc34)SS[C@@]1(CO)C(=O)N2C [chetomin]
[1]
  inhibition of VEGF transcription, literature (in words): known potent inhibitor of VEGF transcription

## C[C@H](NC(=O)[C@H](CC(N)=O)NC(=O)[C@H](Cc1ccc(O)cc1)NC(=O)[C@H](CCC(=O)O)NC(=O)[C@H](CS)NC(=O)[C@H](CC(=O)O)NC(=O)[C@H](C)N1C/C=C/CCC(=O)N[C@@H]([C@@H](C)O)C(=O)N[C@@H](C)C1=O)C(N)=O [compound 1]
[2]
  affinity for GST-p300 (in words): submicromolar affinity
[3]
  % helicity: 40%
[4]
  inhibition of VEGF transcription (in words): did not show measurable inhibition of transcription

## C[C@H](NC(=O)[C@H](CC(N)=O)NC(=O)[C@H](Cc1ccc(O)cc1)NC(=O)[C@H](CCC(=O)O)NC(=O)[C@H](CS)NC(=O)[C@H](CC(=O)O)NC(=O)[C@H](C)N1C/C=C/CCC(=O)N[C@@H]([C@@H](C)O)C(=O)N[C@@H](C)C1=O)C(=O)N[C@@H](CCCNC(=N)N)C(N)=O [compound 2]
[2]
  affinity for GST-p300 (in words): does not have a detrimental effect on the ability of HBS 2 to bind GST-p300
[3]; listed as HBS 2
  solution conformation by CD (in words): more helical than HBS 1
[3]
  % helicity: 53%
[5]
  cytotoxicity (in words): does not display significant cytotoxicity
[6]
  effect on CD spectrum of GST-p300 (in words): does not alter the CD spectrum of GST-p300

## CC(=O)N[C@H](C(=O)N[C@@H](C)C(=O)N[C@@H](C)C(=O)N[C@@H](CC(=O)O)C(=O)N[C@@H](CS)C(=O)N[C@@H](CCC(=O)O)C(=O)N[C@@H](Cc1ccc(O)cc1)C(=O)N[C@@H](CC(N)=O)C(=O)N[C@@H](C)C(=O)N[C@@H](CCCNC(=N)N)C(=O)O)[C@@H](C)O [compound 4] (Ac-TAADCEYNAR-OH)
[2]
  Kd: 825 ± 50 nM

— PMC2810346 (Journal of the American Chemical Society, 2010)
